For 7 cell lines, relative viability results are on record in the supplement of paper PMC10307832.

Common to all, as to experiment: relative viability (nuclei count vs DMSO), 5 days (fraction); higher = more cells survive
Compound in test [1]: CCN(CCO)CCCC(C)Nc1ccnc2cc(Cl)ccc12 [Hydroxychloroquine] + CC1(C)CCC(c2ccc(Cl)cc2)=C(CN2CCN(c3ccc(C(=O)NS(=O)(=O)c4ccc(N[C@H](CCN5CCOCC5)CSc5ccccc5)c(S(=O)(=O)C(F)(F)F)c4)cc3)CC2)C1 [Navitoclax] (partner 0.5 µM)
In outline: (§1)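 A single step with final 0.05% Triton X-100, 1% formaldehyde and 1 ug/ml Hoechst fixed the cells and stained nuclei 5 days after treatment. Lung cancer cell lines in 1536-well plates had been treated by pin tool the day after seeding with one drug alone or a fixed anchor-drug dose plus five library-drug doses (not always all listed) in √10 steps, and nuclei were counted on 4× images. Relative viability is the ratio of nuclei in treated wells to nuclei in vehicle wells, taken as the median of duplicate plates.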

Compound in test [2]: CCN(CCO)CCCC(C)Nc1ccnc2cc(Cl)ccc12 [Hydroxychloroquine] + C[C@@H](Oc1cc(-c2cnn(C3CCNCC3)c2)cnc1N)c1c(Cl)ccc(F)c1Cl [Crizotinib] (partner 1 µM)
In outline:
as §1

Compound in test [3]: CCN(CCO)CCCC(C)Nc1ccnc2cc(Cl)ccc12 [Hydroxychloroquine] + Cc1nc(Nc2ncc(C(=O)Nc3c(C)cccc3Cl)s2)cc(N2CCN(CCO)CC2)n1 [Dasatinib] (partner 0.075 µM)
Put shortly: as §1

Compound in test [4]: CCN(CCO)CCCC(C)Nc1ccnc2cc(Cl)ccc12 [Hydroxychloroquine] + O=C(CCCCCCC(=O)Nc1ccccc1)NO [Vorinostat] (partner 1 µM)
In outline: as §1

For the cell line HARA, the relative viability in test [1] (first compound 0.5 µM) amounted to 1.14; in test [1] (first compound 1.581 µM), 1.15; in test [1] (first compound 5 µM), 1.14; in test [1] (first compound 15.81 µM) it was 1.2; in test [1] (first compound 50 µM) it was 1.12; in test [2] (first compound 0.5 µM), 1.13. Moreover, the relative viability came out at 1.31 in test [2] (first compound 1.581 µM); 1.05 in test [2] (first compound 5 µM); 1.02 in test [2] (first compound 15.81 µM); 1.04 in test [2] (first compound 50 µM); 0.287 in test [3] (first compound 0.5 µM); 0.262 in test [3] (first compound 1.581 µM). Further, the relative viability in test [3] (first compound 5 µM) stood at 0.253; in test [3] (first compound 15.81 µM), 0.29; in test [3] (first compound 50 µM) it was 0.299; in test [4] (first compound 0.5 µM), 0.516; in test [4] (first compound 1.581 µM), 0.482; in test [4] (first compound 5 µM) it was 0.55. The relative viability in test [4] (first compound 15.81 µM) is 0.603; in test [4] (first compound 50 µM), 0.594.
Turning to HCC-366, the relative viability amounted to 1.09 in test [1] (first compound 0.5 µM); 1.04 in test [1] (first compound 1.581 µM); 0.963 in test [1] (first compound 5 µM); 1.07 in test [1] (first compound 15.81 µM); 1.16 in test [1] (first compound 50 µM); 0.698 in test [2] (first compound 0.5 µM). In addition, the relative viability in test [2] (first compound 1.581 µM) stood at 0.607; in test [2] (first compound 5 µM), 0.402; in test [2] (first compound 15.81 µM) it was 0.514; in test [2] (first compound 50 µM), 0.612; in test [3] (first compound 0.5 µM), 0.739; in test [3] (first compound 1.581 µM), 0.731. Moreover, the relative viability worked out at 0.624 in test [3] (first compound 5 µM); 0.768 in test [3] (first compound 15.81 µM); 0.719 in test [3] (first compound 50 µM); 0.339 in test [4] (first compound 0.5 µM); 0.232 in test [4] (first compound 1.581 µM); 0.301 in test [4] (first compound 5 µM). For the same cell line, the values for the relative viability in test [4] (first compound 15.81 µM) and in test [4] (first compound 50 µM) were 0.338 and 0.434, respectively.
Regarding NCI-H322M, the relative viability in test [1] (first compound 0.5 µM) is 1; in test [1] (first compound 1.581 µM), 1.15; in test [1] (first compound 5 µM) it was 1.12; in test [1] (first compound 15.81 µM), 1.15; in test [1] (first compound 50 µM), 1.43; in test [2] (first compound 0.5 µM), 0.996. The relative viability was found to be 0.922 in test [2] (first compound 1.581 µM); 0.894 in test [2] (first compound 5 µM); 0.927 in test [2] (first compound 15.81 µM); 1.02 in test [2] (first compound 50 µM); 0.256 in test [3] (first compound 0.5 µM); 0.248 in test [3] (first compound 1.581 µM). Moreover, the relative viability came out at 0.258 in test [3] (first compound 5 µM); 0.253 in test [3] (first compound 15.81 µM); 0.263 in test [3] (first compound 50 µM); 0.849 in test [4] (first compound 0.5 µM); 0.877 in test [4] (first compound 1.581 µM); 0.83 in test [4] (first compound 5 µM). In addition, the figures for the relative viability in test [4] (first compound 15.81 µM) and in test [4] (first compound 50 µM) were 0.839 and 0.991, respectively.
NCI-H2347: the relative viability was 0.784 in test [1] (first compound 0.5 µM); 0.81 in test [1] (first compound 1.581 µM); 0.689 in test [1] (first compound 5 µM); 0.851 in test [1] (first compound 15.81 µM); 0.702 in test [1] (first compound 50 µM); 0.887 in test [2] (first compound 0.5 µM). Besides, the relative viability in test [2] (first compound 1.581 µM) is 0.588; in test [2] (first compound 5 µM), 0.544; in test [2] (first compound 15.81 µM), 0.728; in test [2] (first compound 50 µM), 0.85; in test [3] (first compound 0.5 µM), 0.281; in test [3] (first compound 1.581 µM), 0.149. Besides, the relative viability in test [3] (first compound 5 µM) worked out at 0.325; in test [3] (first compound 15.81 µM) it was 0.281; in test [3] (first compound 50 µM) it was 0.274; in test [4] (first compound 0.5 µM), 0.663; in test [4] (first compound 1.581 µM), 0.456; in test [4] (first compound 5 µM) it was 0.604. For the same cell line, the relative viability in test [4] (first compound 15.81 µM) stood at 0.639; in test [4] (first compound 50 µM) it was 0.58.
In the case of NCI-H1975, the relative viability in test [1] (first compound 0.5 µM) amounted to 1.08; in test [1] (first compound 1.581 µM), 1.05; in test [1] (first compound 5 µM) it was 1.15; in test [1] (first compound 15.81 µM), 1.03; in test [1] (first compound 50 µM) it was 1.22; in test [2] (first compound 0.5 µM), 1.05. Also, the relative viability worked out at 1.08 in test [2] (first compound 1.581 µM); 0.926 in test [2] (first compound 5 µM); 1.06 in test [2] (first compound 15.81 µM); 1.15 in test [2] (first compound 50 µM); 0.404 in test [3] (first compound 0.5 µM); 0.376 in test [3] (first compound 1.581 µM). Moreover, the relative viability in test [3] (first compound 5 µM) stood at 0.322; in test [3] (first compound 15.81 µM), 0.502; in test [3] (first compound 50 µM) it was 0.412; in test [4] (first compound 0.5 µM), 0.682; in test [4] (first compound 1.581 µM), 0.704; in test [4] (first compound 5 µM), 0.8. The values for the relative viability in test [4] (first compound 15.81 µM) and in test [4] (first compound 50 µM) were 0.742 and 0.717, respectively.
Take NCI-H441: the relative viability was determined as 0.767 in test [1] (first compound 1.581 µM); 0.52 in test [1] (first compound 5 µM); 0.707 in test [1] (first compound 15.81 µM); 0.671 in test [1] (first compound 50 µM); 0.624 in test [2] (first compound 0.5 µM); 0.824 in test [2] (first compound 1.581 µM). Further, the relative viability in test [2] (first compound 5 µM) is 0.92; in test [2] (first compound 15.81 µM) it was 0.734; in test [2] (first compound 50 µM), 0.663; in test [3] (first compound 0.5 µM) it was 0.608; in test [3] (first compound 1.581 µM), 0.559; in test [3] (first compound 5 µM) it was 0.66. Besides, the relative viability in test [3] (first compound 15.81 µM) is 0.496; in test [3] (first compound 50 µM), 0.684; in test [4] (first compound 0.5 µM), 0.734; in test [4] (first compound 1.581 µM), 0.677; in test [4] (first compound 5 µM), 0.781; in test [4] (first compound 15.81 µM), 1.07. Further, the relative viability in test [4] (first compound 50 µM) turned out to be 0.693.
Turning to A-427, the relative viability stood at 0.875 in test [1] (first compound 0.5 µM); 0.776 in test [1] (first compound 1.581 µM); 0.993 in test [1] (first compound 5 µM); 0.919 in test [1] (first compound 15.81 µM); 1.04 in test [1] (first compound 50 µM); 0.935 in test [2] (first compound 0.5 µM). Further, the relative viability amounted to 0.869 in test [2] (first compound 1.581 µM); 0.94 in test [2] (first compound 5 µM); 0.838 in test [2] (first compound 15.81 µM); 0.973 in test [2] (first compound 50 µM); 0.748 in test [3] (first compound 0.5 µM); 0.67 in test [3] (first compound 1.581 µM). The relative viability in test [3] (first compound 5 µM) amounted to 0.774; in test [3] (first compound 15.81 µM) it was 0.649; in test [3] (first compound 50 µM), 0.796; in test [4] (first compound 0.5 µM), 0.919; in test [4] (first compound 1.581 µM), 0.826; in test [4] (first compound 5 µM), 0.834. Besides, the figures for the relative viability in test [4] (first compound 15.81 µM) and in test [4] (first compound 50 µM) were 0.807 and 0.79, respectively.
